Laboratory results from patent US20250195530A1, “POLQ INHIBITORS” (ASTRAZENECA AB, priority 2022, published 2025).

Tested on: DLD-1 BRCA2−/− cells
Experiment: Homologous recombination synthetic lethal inhibition of proliferation, DLD-1 BRCA2-/- (Cell Titre Glo 3D)
Type: cell-based
Conditions: DLD-1 BRCA2-/-
Method in brief: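 Wild-type DLD-1 serves as the control for non-specific toxicity, and BRCA2-null DLD-1 as the homologous-recombination-deficient line. Both grew with compound from 10 μM down to 0.51 nM, re-dosed after 6 days. Luminescent ATP content (CellTiter-Glo 3D) was read after 7 or 12 days, respectively, to give IC50 values.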

| SMILES | POLQ PD Prolif Lumin |
| --- | --- |
| Cc1ccnc(Cn2c(-c3ccc(OCC(=O)N(C)[C@H]4C[C@@H](O)C4)cc3Cl)nc3c(OC4(C)CC4)ncnc32)c1 [Example T582, 2-(3-chloro-4-(6-(1-methylcyclopropoxy)-9-((4-methylpyridin-2-yl)methyl)-9H-purin-8-yl)phenoxy)-N-((1s,3s)-3-hydroxycyclobutyl)-N-methylacetamide] | 6.2 |

Same assay, conditions: Homo sapiens, DLD-1, first proliferation column (c5); DLD-1 BRCA2-/-; read-out: POLQ PD Prolif Lumin (converted)

| SMILES | IC50 [nM] |
| --- | --- |
| Cc1ccnc(Cn2c(-c3ccc(OCC(=O)N4CCC[C@H]4C#N)cc3Cl)nc3c(OC4(C)CC4)ncnc32)c1 [Example T539, (S)-1-(2-(3-chloro-4-(6-(1-methylcyclopropoxy)-9-((4-methylpyridin-2-yl)methyl)-9H-purin-8-yl)phenoxy)acetyl)pyrrolidine-2-carbonitrile] | 316 |
| Cc1ccnc(Cn2c(-c3ccc(OCC(=O)N4C[C@H]5C[C@@H](C4)O5)cc3Cl)nc3c(OC4(C)CC4)ncnc32)c1 [Example T550, rel-1-((1R,5S)-6-oxa-3-azabicyclo[3.1.1]heptan-3-yl)-2-(3-chloro-4-(6-(1-methylcyclopropoxy)-9-((4-methylpyridin-2-yl)methyl)-9H-purin-8-yl)phenoxy)ethan-1-one] | 316 |
| Cc1ccnc(Cn2c(-c3ccc(OCC(=O)N4CCC[C@H](F)C4)cc3Cl)nc3c(OC4(C)CC4)ncnc32)c1 [Example T552, (S)-2-(3-chloro-4-(6-(1-methylcyclopropoxy)-9-((4-methylpyridin-2-yl)methyl)-9H-purin-8-yl)phenoxy)-1-(3-fluoropiperidin-1-yl)ethan-1-one] | 158 |
| Cc1ccnc(Cn2c(-c3ccc(OCC(=O)N4CCC(F)CC4)cc3Cl)nc3c(OC4(C)CC4)ncnc32)c1 [Example T553, 2-(3-chloro-4-(6-(1-methylcyclopropoxy)-9-((4-methylpyridin-2-yl)methyl)-9H-purin-8-yl)phenoxy)-1-(4-fluoropiperidin-1-yl)ethan-1-one] | 200 |
| Cc1ccnc(Cn2c(-c3ccc(CC(=O)N4CC5(CCN5)C4)cc3Cl)nc3c(OC4(C)CC4)ncnc32)c1 [Example T556, 2-(3-chloro-4-(6-(1-methylcyclopropoxy)-9-((4-methylpyridin-2-yl)methyl)-9H-purin-8-yl)phenyl)-1-(1,6-diazaspiro[3.3]heptan-6-yl)ethan-1-one] | 6310 |
| Cc1ccnc(Cn2c(-c3ccc(CC(=O)N4C5CNCC4C5)cc3Cl)nc3c(OC4(C)CC4)ncnc32)c1 [Example T557, 1-(3,6-diazabicyclo[3.1.1]heptan-6-yl)-2-(3-chloro-4-(6-(1-methylcyclopropoxy)-9-((4-methylpyridin-2-yl)methyl)-9H-purin-8-yl)phenyl)ethan-1-one] | 6310 |
| Cc1ccnc(Cn2c(-c3ccc(CC(=O)N4CC5(CNC5)C4)cc3Cl)nc3c(OC4(C)CC4)ncnc32)c1 [Example T558, 2-(3-chloro-4-(6-(1-methylcyclopropoxy)-9-((4-methylpyridin-2-yl)methyl)-9H-purin-8-yl)phenyl)-1-(2,6-diazaspiro[3.3]heptan-2-yl)ethan-1-one] | > 10000 |
| CC(C)(CCOc1ccc(-c2nc3c(OC4(C)CC4)ncnc3n2Cc2cccc(Cl)c2)c(Cl)c1)CC(=O)O [Example T562, 5-(3-chloro-4-(9-(3-chlorobenzyl)-6-(1-methylcyclopropoxy)-9H-purin-8-yl)phenoxy)-3,3-dimethylpentanoic acid] | 126 |
| CC1(Oc2ncnc3c2nc(-c2cccc(OCCCCCCC(=O)O)c2Cl)n3Cc2cccc(Cl)c2)CC1 [Example T564, 7-(2-chloro-3-(9-(3-chlorobenzyl)-6-(1-methylcyclopropoxy)-9H-purin-8-yl)phenoxy)heptanoic acid] | 31.6 |
| CC1(Oc2ncnc3c2nc(-c2cccc(OCCCC(C)(C)C(=O)O)c2Cl)n3Cc2cccc(Cl)c2)CC1 [Example T565, 5-(2-chloro-3-(9-(3-chlorobenzyl)-6-(1-methylcyclopropoxy)-9H-purin-8-yl)phenoxy)-2,2-dimethylpentanoic acid] | 100 |
| CC1(Oc2ncnc3c2nc(-c2ccc(OCCN4CCNCC4C(F)F)cc2Cl)n3Cc2ccccc2)CC1 (stereo not drawn) [Example T567, 9-benzyl-8-(2-chloro-4-(2-(2-(difluoromethyl)piperazin-1-yl)ethoxy)phenyl)-6-(1-methylcyclopropoxy)-9H-purine] | 158 |

Same assay, conditions: Homo sapiens, DLD-1, first proliferation column; DLD-1 BRCA2-/-; read-out: POLQ PD Prolif Lumin (converted)

| SMILES | IC50 [nM] |
| --- | --- |
| Cc1ccnc(Cn2c(-c3ccc(CC(=O)N4CC[C@](C)(O)C4)cc3Cl)nc3c(OC4(C)CC4)ncnc32)c1 [Example T575, (S)-2-(3-chloro-4-(6-(1-methylcyclopropoxy)-9-((4-methylpyridin-2-yl)methyl)-9H-purin-8-yl)phenyl)-1-(3-hydroxy-3-methylpyrrolidin-1-yl)ethan-1-one] | 316 |
| Cc1ccnc(Cn2c(-c3ccc(OCC(=O)N4CCC[C@H]4CO)cc3Cl)nc3c(OC4(C)CC4)ncnc32)c1 [Example T576, (S)-2-(3-chloro-4-(6-(1-methylcyclopropoxy)-9-((4-methylpyridin-2-yl)methyl)-9H-purin-8-yl)phenoxy)-1-(2-(hydroxymethyl)pyrrolidin-1-yl)ethan-1-one] | 501 |
| CO[C@H]1CCN(C(=O)COc2ccc(-c3nc4c(OC5(C)CC5)ncnc4n3Cc3cc(C)ccn3)c(Cl)c2)C1 [Example T577, (S)-2-(3-chloro-4-(6-(1-methylcyclopropoxy)-9-((4-methylpyridin-2-yl)methyl)-9H-purin-8-yl)phenoxy)-1-(3-methoxypyrrolidin-1-yl)ethan-1-one] | 398 |
| Cc1ccnc(Cn2c(-c3ccc(OCC(=O)N4CC[C@@H](CO)C4)cc3Cl)nc3c(OC4(C)CC4)ncnc32)c1 [Example T578, (R)-2-(3-chloro-4-(6-(1-methylcyclopropoxy)-9-((4-methylpyridin-2-yl)methyl)-9H-purin-8-yl)phenoxy)-1-(3-(hydroxymethyl)pyrrolidin-1-yl)ethan-1-one] | 631 |
| Cc1ccnc(Cn2c(-c3ccc(OCC(=O)N4CCC[C@@H]4CO)cc3Cl)nc3c(OC4(C)CC4)ncnc32)c1 [Example T579, (R)-2-(3-chloro-4-(6-(1-methylcyclopropoxy)-9-((4-methylpyridin-2-yl)methyl)-9H-purin-8-yl)phenoxy)-1-(2-(hydroxymethyl)pyrrolidin-1-yl)ethan-1-one] | 501 |
| Cc1ccnc(Cn2c(-c3ccc(OCC(=O)N4CCC(O)CC4)cc3Cl)nc3c(OC4(C)CC4)ncnc32)c1 [Example T580, 2-(3-chloro-4-(6-(1-methylcyclopropoxy)-9-((4-methylpyridin-2-yl)methyl)-9H-purin-8-yl)phenoxy)-1-(4-hydroxypiperidin-1-yl)ethan-1-one] | 501 |
| Cc1ccnc(Cn2c(-c3ccc(OCC(=O)N4CC[C@@](C)(O)C4)cc3Cl)nc3c(OC4(C)CC4)ncnc32)c1 [Example T581, (R)-2-(3-chloro-4-(6-(1-methylcyclopropoxy)-9-((4-methylpyridin-2-yl)methyl)-9H-purin-8-yl)phenoxy)-1-(3-hydroxy-3-methylpyrrolidin-1-yl)ethan-1-one] | 501 |
| Cc1ccnc(Cn2c(-c3ccc(OCC(=O)N(C)CC4(O)CC4)cc3Cl)nc3c(OC4(C)CC4)ncnc32)c1 [Example T583, 2-(3-chloro-4-(6-(1-methylcyclopropoxy)-9-((4-methylpyridin-2-yl)methyl)-9H-purin-8-yl)phenoxy)-N-((1-hydroxycyclopropyl)methyl)-N-methylacetamide] | 2000 |
| Cc1ccnc(Cn2c(-c3ccc(O[C@H]4CCN(C(=O)[C@@H](C)O)C4)cc3Cl)nc3c(OC4(C)CC4)ncnc32)c1 [Example T584, (R)-1-((S)-3-(3-chloro-4-(6-(1-methylcyclopropoxy)-9-((4-methylpyridin-2-yl)methyl)-9H-purin-8-yl)phenoxy)pyrrolidin-1-yl)-2-hydroxypropan-1-one] | 794 |
| Cc1ccnc(Cn2c(-c3ccc(N4CCN5CCC[C@H]5C4)cc3Cl)nc3c(OC4(C)CC4)ncnc32)c1 [Example T585, (S)-8-(2-chloro-4-(hexahydropyrrolo[1,2-a]pyrazin-2(1H)-yl)phenyl)-6-(1-methylcyclopropoxy)-9-((4-methylpyridin-2-yl)methyl)-9H-purine] | 200 |
| Cc1ccnc(Cn2c(-c3ccc(N4CCC5(CCN5)CC4)cc3Cl)nc3c(OC4(C)CC4)ncnc32)c1 [Example T586, 8-(2-chloro-4-(1,7-diazaspiro[3.5]nonan-7-yl)phenyl)-6-(1-methylcyclopropoxy)-9-((4-methylpyridin-2-yl)methyl)-9H-purine] | 1580 |
| Cc1ccnc(Cn2c(-c3ccc(C(=O)N4CC(N5CCCC5)C4)cc3Cl)nc3c(OC4(C)CC4)ncnc32)c1 [Example T602, (3-chloro-4-(6-(1-methylcyclopropoxy)-9-((4-methylpyridin-2-yl)methyl)-9H-purin-8-yl)phenyl)(3-(pyrrolidin-1-yl)azetidin-1-yl)methanone] | 1260 |
| Cc1ccnc(Cn2c(-c3ccc(CC(=O)N4CC(N5CCC5)C4)cc3Cl)nc3c(OC4(C)CC4)ncnc32)c1 [Example T603, 1-([1,3′-biazetidin]-1′-yl)-2-(3-chloro-4-(6-(1-methylcyclopropoxy)-9-((4-methylpyridin-2-yl)methyl)-9H-purin-8-yl)phenyl)ethan-1-one] | 794 |
| CC1(Oc2ncnc3c2nc(-c2ccc(OCCN4C5CCC4CNC5)cc2Cl)n3Cc2ccccc2)CC1 [Example T605, 8-(4-(2-(3,8-diazabicyclo[3.2.1]octan-8-yl)ethoxy)-2-chlorophenyl)-9-benzyl-6-(1-methylcyclopropoxy)-9H-purine] | 158 |
| CC(=O)N1CCN(CCOc2ccc(-c3nc4c(OC5(C)CC5)ncnc4n3Cc3cc(C)ccn3)c(Cl)c2)CC1 [Example T607, 1-(4-(2-(3-chloro-4-(6-(1-methylcyclopropoxy)-9-((4-methylpyridin-2-yl)methyl)-9H-purin-8-yl)phenoxy)ethyl)piperazin-1-yl)ethan-1-one] | 126 |
